Laboratory results: the NIST ThermoML archive (doi:10.1016/j.fluid.2018.05.004)
± gives the expanded uncertainty stated by the source.

Conditions: Crystal, Transpiration method

[CH]1C=CC=C1.[CH]1C=CC=C1.[Fe] [ferrocene]
Conditions	vapor or sublimation pressure [kPa]
361.2 K	0.172 ± 0.021
363.2 K	0.198 ± 0.025
366.5 K	0.244 ± 0.031
368.2 K	0.263 ± 0.034
371.7 K	0.332 ± 0.042
374.4 K	0.398 ± 0.05
378.3 K	0.494 ± 0.063
385.7 K	0.789 ± 0.098
388.6 K	0.907 ± 0.11
392.1 K	1.13 ± 0.14
394 K	1.23 ± 0.15
401.8 K	1.881 ± 0.24
410.1 K	2.869 ± 0.36
417.3 K	4.29 ± 0.54
419.4 K	4.338 ± 0.54
429.4 K	7.204 ± 0.9
430.7 K	7.571 ± 0.95
434.6 K	9.559 ± 1.2
435.2 K	9.195 ± 1.2
